Earlier results in patent US20070036851A1, “Acid labile drug compositions” (priority 2002, published 2007).

Settings: in vitro, water, pH of about 6; colour changes from clear to yellow, then brown, then purple

In the case of COc1ccc2[nH]c([S+]([O-])Cc3ncc(C)c(OC)c3C)nc2c1 (stereo not shown) [omeprazole], the “stability at acidic pH (drug degradation)” value is given as “quickly cyclizes”.
